# The source made the active and inactive calls. No cut-off for these calls is given here.
# What was measured:
# [1] = test system: Mycobacterium tuberculosis; assay: Antitubercular activity against Mycobacterium tuberculosis H37Rv ATCC 25618 after 14 days; format: functional; conditions: 336 h
# [2] = test system: Mycobacterium tuberculosis; assay: Antitubercular activity against Mycobacterium tuberculosis H37Ra under aerobic condition after 7 days by MTT method; format: functional; conditions: 168 h
# [3] = test system: Mycolicibacterium smegmatis; assay: Antitubercular activity against Mycobacterium smegmatis MC2 155 under aerobic condition after 24 hrs by MTT method; format: functional; conditions: str. MC2 155, 24 h
# [4] = test system: Mycobacterium tuberculosis; assay: Bactericidal activity against Mycobacterium tuberculosis H37Rv assessed as decrease in CFU at 20 ug/ml after 11 to 28 days; format: functional
# [5] = test system: Mycobacterium tuberculosis; assay: Antitubercular activity against Mycobacterium tuberculosis H37Ra under hypoxic condition after 14 days by MTT method; format: functional; conditions: 336 h
# Mycolicibacterium aurum = assay: Antitubercular activity against Mycobacterium aurum ATCC 23366 after 14 days; format: functional; conditions: ATCC 23366, 336 h
# Mycobacterium avium = assay: Antitubercular activity against Mycobacterium avium ATCC 35712 after 14 days; format: functional; conditions: ATCC 35712, 336 h
# [6] = test system: Mycolicibacterium smegmatis; assay: Bactericidal activity against Mycobacterium smegmatis MC2 155 assessed as decrease in CFU at 10 ug/ml after 4 days; format: functional, organism-based; conditions: str. MC2 155
# [7] = test system: Mycolicibacterium smegmatis; assay: Antitubercular activity against Mycobacterium smegmatis MC2 155 ICHO1001 with pMV261 transformant; format: functional; conditions: str. MC2 155
# [8] = test system: Mycolicibacterium smegmatis; assay: Antitubercular activity against guaB2 gene over-expressed Mycobacterium smegmatis MC2 155 ICHO1003; format: functional; conditions: str. MC2 155
# Mycobacterium kansasii = assay: Antitubercular activity against Mycobacterium kansasii ATCC 35775 after 14 days; format: functional; conditions: ATCC 35775, 336 h
# [9] = test system: Mycobacterium intracellulare; assay: Antitubercular activity against Mycobacterium intracellular ATCC 35761 after 14 days; format: functional; conditions: ATCC 35761, 336 h
# [10] = test system: Mycolicibacterium smegmatis; assay: Antitubercular activity against guaB1 gene over-expressed Mycobacterium smegmatis MC2 155 ICHO1002; format: functional; conditions: str. MC2 155
# [11] = test system: Mycobacterium tuberculosis; assay: Antitubercular activity against Mycobacterium tuberculosis Kurono ATCC 35812 after 14 days; format: functional; conditions: 336 h
# [12] = test system: Mycolicibacterium smegmatis; assay: Antitubercular activity against Mycobacterium smegmatis MC2 155 under hypoxic condition after 96 hrs by MTT method; format: functional; conditions: str. MC2 155, 96 h
# [13] = test system: Mycolicibacterium fortuitum; assay: Antitubercular activity against Mycobacterium fortuitum ATCC 9820 after 14 days; format: functional; conditions: ATCC 9820, 336 h
# [14] = test system: Mycolicibacterium smegmatis; assay: Antitubercular activity against guaB3 gene over-expressed Mycobacterium smegmatis MC2 155 ICHO1004; format: functional; conditions: str. MC2 155
SMILES,MIC [1] [µg/mL],MIC [2] [µg/mL],MIC [3] [µg/mL],CFU/ml [4],MIC [5] [µg/mL],MIC (Mycolicibacterium aurum) [µg/mL],MIC (Mycobacterium avium) [µg/mL],Activity [6],MIC [7] [µg/mL],MIC [8] [µg/mL],MIC (Mycobacterium kansasii) [µg/mL],MIC [9] [µg/mL],MIC [10] [µg/mL],MIC [11] [µg/mL],MIC [12] [µg/mL],MIC [13] [µg/mL],MIC [14] [µg/mL]
C1=C2CCCC/C=C\C=C\CCN3CC[C@@H]4[C@H](CCCCCC/C=C\C=C/CCN(C2)C[C@H]14)C3 [HALICYCLAMINE A],6.25,5,2.5,<10,5,6.25,6.25,Active,2.5,2.5,3.13,6.25,2.5,3.13,2.5,25,2.5
NNC(=O)c1ccncc1 [ISONIAZID],,0.05,2.5,,> 100,,,,,,,,,,25,,

# Source: ChEMBL document CHEMBL1155003, “Halicyclamine A, a marine spongean alkaloid as a lead for anti-tuberculosis agent” (2008)
